Measurements reported in patent publication US20250250230A1, “HETEROCYCLIC COMPOUND” (TAKEDA PHARMACEUTICAL COMPANY LIMITED, priority 2022, published 2025).

biological target: T1, human orexin type 2 receptor (Homo sapiens, UniProt O43614); assay: Measurement of orexin type 2 receptor agonist activity (calcium fluorescence, Fluo-4 AM, FDSS); type: cell-based; details: test compound 3 μM; CHO cells expressing human OX2 receptor; DMSO = 0%, orexin A (human) = 100%
T1 construct: expressed in transfected cells
T1 sequence (O43614 1-444): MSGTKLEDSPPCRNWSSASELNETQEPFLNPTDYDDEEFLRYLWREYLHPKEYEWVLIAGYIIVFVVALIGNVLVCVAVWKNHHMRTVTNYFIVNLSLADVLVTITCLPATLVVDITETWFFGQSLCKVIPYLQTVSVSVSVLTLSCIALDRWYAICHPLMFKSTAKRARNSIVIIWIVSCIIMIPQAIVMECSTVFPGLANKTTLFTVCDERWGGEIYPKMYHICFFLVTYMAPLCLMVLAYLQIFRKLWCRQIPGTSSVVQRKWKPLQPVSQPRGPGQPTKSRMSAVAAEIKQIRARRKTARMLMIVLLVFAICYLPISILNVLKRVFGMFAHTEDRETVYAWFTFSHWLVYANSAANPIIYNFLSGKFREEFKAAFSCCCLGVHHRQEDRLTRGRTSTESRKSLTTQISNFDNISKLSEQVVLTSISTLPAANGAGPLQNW
Procedure, shortened: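 CHO-K1 cells stably expressing human OX2R were loaded with Fluo-4 AM (30 min 37 °C, 30 min RT) in HEPES-buffered HBSS with 0.1% BSA and probenecid. Calcium fluorescence was followed on FDSS for 2 min after compound addition; activity normalised to DMSO (0%) and 10 nM orexin A (100%).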

OX2R agonist activity (3 μM, %) [%] | Compound
100 | CS(=O)(=O)N[C@@H]1CN(C(=O)[C@@H]2C[C@H]2c2ccccc2-c2c(F)cccc2F)CC[C@H]1O [Example 269, N-{(3R,4R)-1-[(1R,2R)-2-(2′,6′-difluoro[1,1′-biphenyl]-2-yl)cyclopropane-1-carbonyl]-4-hydroxypiperidin-3-yl}methanesulfonamide]
64 | CS(=O)(=O)N[C@@H]1CN(C(=O)[C@@H]2C[C@H]2c2ccccc2-c2c(F)cccc2F)CC[C@@H]1O [Example 270, N-{(3R,4S)-1-[(1R,2R)-2-(2′,6′-difluoro[1,1′-biphenyl]-2-yl)cyclopropane-1-carbonyl]-4-hydroxypiperidin-3-yl}methanesulfonamide]
87 | CS(=O)(=O)N[C@@H]1CN(C(=O)[C@@H]2C[C@H]2c2ccccc2-c2c(F)cccc2F)CC(F)(F)C1 [Example 271, N-{(3S)-1-[(1R,2R)-2-(2′,6′-difluoro[1,1′-biphenyl]-2-yl)cyclopropane-1-carbonyl]-5,5-difluoropiperidin-3-yl}methanesulfonamide]
99 | CS(=O)(=O)NC12CC1CN(C(=O)C1CC1c1ccccc1-c1c(F)cccc1F)C2 (stereo not drawn) [Example 272, N-{3-[2-(2′,6′-difluoro[1,1′-biphenyl]-2-yl)cyclopropane-1-carbonyl]-3-azabicyclo[3.1.0]hexan-1-yl}methanesulfonamide optical isomer]
98 | CS(=O)(=O)NC12CCC1CN(C(=O)C1CC1c1ccccc1-c1c(F)cccc1F)C2 (stereo not drawn) [Example 273, N-{3-[2-(2′,6′-difluoro[1,1′-biphenyl]-2-yl)cyclopropane-1-carbonyl]-3-azabicyclo[3.1.0]hexan-1-yl}methanesulfonamide optical isomer]
86 | CC1(C(=O)N2CCCC[C@H](NS(C)(=O)=O)C2)CC1c1ccccc1-c1c(F)cccc1F (stereo partly drawn) [Example 274, N-{(3S)-1-[(1R,2S)-2-(2′,6′-difluoro[1,1′-biphenyl]-2-yl)-1-methylcyclopropane-1-carbonyl]azepan-3-yl}methanesulfonamide, or N-{(3S)-1-[(1S,2R)-2-(2′,6′-difluoro[1,1′-biphenyl]-2-yl)-1-methylcyclopropane-1-carbonyl]azepan-3-yl}methanesulfonamide]
101 | CS(=O)(=O)NCC1CCN1C(=O)C1CC1c1ccccc1-c1c(F)cccc1F (stereo not drawn) [Example 276, N-({1-[2-(2′,6′-difluoro[1,1′-biphenyl]-2-yl)cyclopropane-1-carbonyl]azetidin-2-yl}methyl)methylsulfonamide optical isomer]
87 | CS(=O)(=O)N[C@@H]1CN(C(=O)[C@@H]2C[C@H]2c2ccccc2-c2c(F)cccc2F)C[C@H]1F [Example 279, N-{(3R,4R)-1-[(1R,2R)-2-(2′,6′-difluoro[1,1′-biphenyl]-2-yl)cyclopropane-1-carbonyl]-4-fluoropyrrolidin-3-yl}methanesulfonamide]
96 | C[C@H]1C[C@H](NS(=O)(=O)N(C)C)CN1C(=O)[C@@H]1C[C@H]1c1ccccc1-c1c(F)cccc1F [Example 281, N′-{(3S,5S)-1-[(1R,2R)-2-(2′,6′-difluoro[1,1′-biphenyl]-2-yl)cyclopropane-1-carbonyl]-5-methylpyrrolidin-3-yl}-N,N-dimethylsulfuric diamide]
87 | CS(=O)(=O)NC[C@H]1CN(C(=O)[C@@H]2C[C@H]2c2ccccc2-c2c(F)cccc2F)CCO1 [Example 282, N-({(2R)-4-[(1R,2R)-2-(2′,6′-difluoro[1,1′-biphenyl]-2-yl)cyclopropane-1-carbonyl]morpholin-2-yl}methyl)methanesulfonamide]

The remaining lines, values behind:

Compound | OX2R agonist activity (3 μM, %) [%]
CCS(=O)(=O)N[C@H]1CCCN(C(=O)C2CC2c2ccccc2-c2c(F)cccc2F)C1 (stereo partly drawn) [Example 239, N-{(3S)-1-[(1R,2R)-2-(2′,6′-difluoro[1,1′-biphenyl]-2-yl)cyclopropane-1-carbonyl]piperidin-3-yl}ethanesulfonamide, or N-{(3S)-1-[(1S,2S)-2-(2′,6′-difluoro[1,1′-biphenyl]-2-cyclopropane-1-carbonyl]piperidin-3-yl}ethanesulfonamide] | 97
CCS(=O)(=O)N[C@@H]1CN(C(=O)[C@@H]2C[C@H]2c2ccccc2-c2c(F)cccc2F)CCC1(F)F [Example 240, N-{(3R)-1-[(1R,2R)-2-(2′,6′-difluoro[1,1′-biphenyl]-2-yl)cyclopropane-1-carbonyl]-4,4-difluoropiperidin-3-yl}ethanesulfonamide] | 100
CS(=O)(=O)N[C@@H]1CN(C(=O)[C@@H]2C[C@H]2c2ccccc2-c2c(F)cccc2F)C[C@@H]1F [Example 241, N-{(3R,4S)-1-[(1R,2R)-2-(2′,6′-difluoro[1,1′-biphenyl]-2-yl)cyclopropane-1-carbonyl]-4-fluoropyrrolidin-3-yl}methanesulfonamide] | 103
CS(=O)(=O)NC1CN(C(=O)C2CC2c2ccc(F)cc2-c2c(F)cccc2F)CC1(F)F (stereo not drawn) [Example 245, N-{4,4-difluoro-1-[2-(2′,5,6′-trifluoro[1,1′-biphenyl]-2-yl)cyclopropane-1-carbonyl]pyrrolidin-3-yl}methanesulfonamide optical isomer] | 103
CC1(C(=O)N2CCC[C@H](NS(C)(=O)=O)CC2)CC1c1ccccc1-c1c(F)cccc1F (stereo partly drawn) [Example 246, N-{(4S)-1-[(1R,2S)-2-(2′,6′-difluoro[1,1′-biphenyl]-2-yl)-1-methylcyclopropane-1-carbonyl]azepan-4-yl}methanesulfonamide, or N-{(4S)-1-[(1S,2R)-2-(2′,6′-difluoro[1,1′-biphenyl]-2-yl)-1-methylcyclopropane-1-carbonyl]azepan-4-yl}methanesulfonamide] | 78
CC1(C(=O)N2CC[C@H](NS(C)(=O)=O)C2)CC1c1ccccc1-c1c(F)cccc1F (stereo partly drawn) [Example 247, N-{(3S)-1-[(1R,2S)-2-(2′,6′-difluoro[1,1′-biphenyl]-2-yl)-1-methylcyclopropane-1-carbonyl]pyrrolidin-3-yl}methanesulfonamide, or N-{(3S)-1-[(1S,2R)-2-(2′,6′-difluoro[1,1′-biphenyl]-2-yl)-1-methylcyclopropane-1-carbonyl]pyrrolidin-3-yl}methanesulfonamide] | 100
CC1(C(=O)N2CC(NS(C)(=O)=O)C(F)(F)C2)CC1c1ccccc1-c1c(F)cccc1F (stereo not drawn) [Example 248, N-{1-[2-(2′,6′-difluoro[1,1′-biphenyl]-2-yl)-1-methylcyclopropane-1-carbonyl]-4,4-difluoropyrrolidin-3-yl}methanesulfonamide optical isomer] | 98
CS(=O)(=O)NC1COCCN(C(=O)[C@@H]2C[C@H]2c2ccccc2-c2c(F)cccc2F)C1 (stereo partly drawn) [Example 249, N-{(6R)-4-[(1R,2R)-2-(2′,6′-difluoro[1,1′-biphenyl]-2-yl)cyclopropane-1-carbonyl]-1,4-oxazepan-6-yl}methanesulfonamide, or N-{(6S)-4-[(1R,2R)-2-(2′,6′-difluoro[1,1′-biphenyl]-2-yl)cyclopropane-1-carbonyl]-1,4-oxazepan-6-yl}methanesulfonamide] | 105
CN(C)S(=O)(=O)NCC1CCN1C(=O)C1CC1c1ccccc1-c1c(F)cccc1F (stereo not drawn) [Example 250, N′-({1-[2-(2′,6′-difluoro[1,1′-biphenyl]-2-yl)cyclopropane-1-carbonyl]azetidin-2-yl}methyl)-N,N-dimethylsulfuric diamide optical isomer] | 104
CN(C)S(=O)(=O)NC[C@@H]1CCN1C(=O)[C@@H]1C[C@H]1c1ccccc1-c1c(F)cccc1F [Example 259, N′-({(2S)-1-[(1R,2R)-2-(2′,6′-difluoro[1,1′-biphenyl]-2-yl)cyclopropane-1-carbonyl]azetidin-2-yl}methyl)-N,N-dimethylsulfuric Diamide] | 98
C[C@H]1C[C@H](NS(C)(=O)=O)CN1C(=O)[C@@H]1C[C@H]1c1ccccc1-c1c(F)cccc1F [Example 262, N-{(3S,5S)-1-[(1R,2R)-2-(2′,6′-difluoro[1,1′-biphenyl]-2-yl)cyclopropane-1-carbonyl]-5-methylpyrrolidin-3-yl}methanesulfonamide] | 109
C[C@@H]1C[C@H](NS(C)(=O)=O)CN1C(=O)[C@@H]1C[C@H]1c1ccccc1-c1c(F)cccc1F [Example 263, N-{(3S,5R)-1-[(1R,2R)-2-(2′,6′-difluoro[1,1′-biphenyl]-2-yl)cyclopropane-1-carbonyl]-5-methylpyrrolidin-3-yl}methanesulfonamide] | 98
C[C@@H]1CN(C(=O)[C@@H]2C[C@H]2c2ccccc2-c2c(F)cccc2F)C[C@H]1NS(C)(=O)=O [Example 264, N-{(3S,4R)-1-[(1R,2R)-2-(2′,6′-difluoro[1,1′-biphenyl]-2-yl)cyclopropane-1-carbonyl]-4-methylpyrrolidin-3-yl}methanesulfonamide] | 97
C[C@H]1CN(C(=O)[C@@H]2C[C@H]2c2ccccc2-c2c(F)cccc2F)C[C@H]1NS(C)(=O)=O [Example 265, N-{(3S,4S)-1-[(1R,2R)-2-(2′,6′-difluoro[1,1′-biphenyl]-2-yl)cyclopropane-1-carbonyl]-4-methylpyrrolidin-3-yl}methanesulfonamide] | 86
